Measurements as given in the supplement of paper PMC6045584.
± gives the standard deviation of the averaged measurements.

Assays:
CANERTINIB [1] = compound: T1, C=CC(=O)Nc1cc2c(Nc3ccc(F)c(Cl)c3)ncnc2cc1OCCCN1CCOCC1 [CANERTINIB]; test: surviving fraction relative to DMSO-only wells; higher = less growth inhibition; details: exposure time: 5 days
Summary of the method: (§1)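 A line counted only if its three screens reached replicate Pearson r >0.7 and median Z' >0.3. Tumour cells in log phase were seeded at 250–500 per well in 384-well plates and, after 24 hours, kept in continuous contact with inhibitors at 0.5, 1, 5, 10, 50, 100, 500 and 1000 nM for five days. Surviving fraction was taken from CellTiter-Glo luminescence relative to the median of DMSO-only wells.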

SNX-5422 [2] = compound: T2, CC1(C)CC(=O)c2c(C(F)(F)F)nn(-c3ccc(C(N)=O)c(N[C@H]4CC[C@H](OC(=O)CN)CC4)c3)c2C1 [SNX-5422]; test: as above; details: exposure time: 5 days
Summary of the method: as §1

SAPACITABINE [3] = compound: T3, CCCCCCCCCCCCCCCC(=O)Nc1ccn([C@@H]2O[C@H](CO)[C@@H](O)[C@@H]2C#N)c(=O)n1 [SAPACITABINE]; test: as above; details: exposure time: 5 days
Summary of the method: as §1

BI-2536 [4] = compound: T4, CC[C@@H]1C(=O)N(C)c2cnc(Nc3ccc(C(=O)NC4CCN(C)CC4)cc3OC)nc2N1C1CCCC1 [BI-2536]; test: as above; details: exposure time: 5 days
Summary of the method: as §1

AFATINIB [5] = compound: T5, CN(C)C/C=C/C(=O)Nc1cc2c(Nc3ccc(F)c(Cl)c3)ncnc2cc1O[C@H]1CCOC1 [AFATINIB]; test: as above; details: exposure time: 5 days
Summary of the method: as §1

MDV3100 [6] = compound: T6, CNC(=O)c1ccc(N2C(=S)N(c3ccc(C#N)c(C(F)(F)F)c3)C(=O)C2(C)C)cc1F [MDV3100]; test: as above; details: exposure time: 5 days
Summary of the method: as §1

[7] = compound: Cn1cc(C2=Nc3cc(NC(=O)C(N)C4CCCCC4)cc4c3C2=CNNC4=O)cn1; test: as above; details: exposure time: 5 days
Summary of the method: as §1

TIOGUANINE [8] = compound: T7, Nc1nc2[nH]cnc2c(=S)[nH]1 [TIOGUANINE]; test: as above; details: exposure time: 5 days
Summary of the method: as §1

CANERTINIB [9] = compound: T1, CANERTINIB; test: area under dose-response curve of surviving fraction (unscaled, Aref=0) (surviving fraction x log10(nM)); higher = more resistant; details: exposure time: 5 days; dose range 0.5-1000 nM
Summary of the method: (§2)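 Tumour cell lines in 384-well plates were exposed for five days to eight inhibitor concentrations from 0.5 to 1000 nM. Viability was read by CellTiter-Glo luminescence, normalised to DMSO-only wells, in three screens per line. Dose-response survival curves were fitted to surviving fractions by 3-parameter logistic regression in the drc R package. Area under the curve is the unscaled activity area (Aref = 0) over log10 dose.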

SNX-5422 [10] = compound: T2, SNX-5422; test: as above; details: exposure time: 5 days; dose range 0.5-1000 nM
Summary of the method: as §2

SAPACITABINE [11] = compound: T3, SAPACITABINE; test: as above; details: exposure time: 5 days; dose range 0.5-1000 nM
Summary of the method: as §2

BI-2536 [12] = compound: T4, BI-2536; test: as above; details: exposure time: 5 days; dose range 0.5-1000 nM
Summary of the method: as §2

AFATINIB [13] = compound: T5, AFATINIB; test: as above; details: exposure time: 5 days; dose range 0.5-1000 nM
Summary of the method: as §2

MDV3100 [14] = compound: T6, MDV3100; test: as above; details: exposure time: 5 days; dose range 0.5-1000 nM
Summary of the method: as §2

[15] = compound: Cn1cc(C2=Nc3cc(NC(=O)C(N)C4CCCCC4)cc4c3C2=CNNC4=O)cn1; test: as above; details: exposure time: 5 days; dose range 0.5-1000 nM
Summary of the method: as §2

TIOGUANINE [16] = compound: T7, TIOGUANINE; test: as above; details: exposure time: 5 days; dose range 0.5-1000 nM
Summary of the method: as §2

Q: Which surviving fraction (CANERTINIB [1]; 0.5 nM) does the source give for HCC38 BREAST here?
A: 1.01 ± 0.11

Q: And the surviving fraction (CANERTINIB [1]; 1 nM)?
A: 1.07 ± 0.18

Q: What about the surviving fraction (CANERTINIB [1]; 5 nM) of the same test system?
A: 1.08 ± 0.24

Q: And the surviving fraction (CANERTINIB [1]; 10 nM)?
A: 1.05 ± 0.082

Q: What about the surviving fraction (CANERTINIB [1]; 50 nM) of the same test system?
A: 1.19 ± 0.17

Q: And the surviving fraction (CANERTINIB [1]; 100 nM)?
A: 1.18 ± 0.12

Q: What about the surviving fraction (CANERTINIB [1]; 500 nM) of the same test system?
A: 0.948 ± 0.1

Q: What about the surviving fraction (CANERTINIB [1]; 1000 nM) of the same test system?
A: 0.864 ± 0.16

Q: And the surviving fraction (SNX-5422 [2]; 0.5 nM)?
A: 1.19 ± 0.18

Q: And the surviving fraction (SNX-5422 [2]; 1 nM)?
A: 1.09 ± 0.094

Q: And the surviving fraction (SNX-5422 [2]; 5 nM)?
A: 1.06 ± 0.19

Q: And the surviving fraction (SNX-5422 [2]; 10 nM)?
A: 1.01 ± 0.15

Q: What about the surviving fraction (SNX-5422 [2]; 50 nM) of the same test system?
A: 0.219 ± 0.053

Q: What about the surviving fraction (SNX-5422 [2]; 100 nM) of the same test system?
A: 0.26 ± 0.027

Q: And the surviving fraction (SNX-5422 [2]; 500 nM)?
A: 0.0927 ± 0.0074

Q: And the surviving fraction (SNX-5422 [2]; 1000 nM)?
A: 0.0897 ± 0.017

Q: What about the surviving fraction (SAPACITABINE [3]; 0.5 nM) of the same test system?
A: 0.958 ± 0.075

Q: What about the surviving fraction (SAPACITABINE [3]; 1 nM) of the same test system?
A: 0.931 ± 0.092

Q: What about the surviving fraction (SAPACITABINE [3]; 5 nM) of the same test system?
A: 1.02 ± 0.21

Q: What about the surviving fraction (SAPACITABINE [3]; 10 nM) of the same test system?
A: 0.801 ± 0.02

Q: And the surviving fraction (SAPACITABINE [3]; 50 nM)?
A: 0.594 ± 0.17

Q: And the surviving fraction (SAPACITABINE [3]; 100 nM)?
A: 0.525 ± 0.04

Q: And the surviving fraction (SAPACITABINE [3]; 500 nM)?
A: 0.414 ± 0.086

Q: What about the surviving fraction (SAPACITABINE [3]; 1000 nM) of the same test system?
A: 0.274 ± 0.088

Q: And the surviving fraction (BI-2536 [4]; 0.5 nM)?
A: 1.08 ± 0.078

Q: And the surviving fraction (BI-2536 [4]; 1 nM)?
A: 1.15 ± 0.18

Q: What about the surviving fraction (BI-2536 [4]; 5 nM) of the same test system?
A: 0.289 ± 0.021

Q: And the surviving fraction (BI-2536 [4]; 10 nM)?
A: 0.247 ± 0.038

Q: And the surviving fraction (BI-2536 [4]; 50 nM)?
A: 0.219 ± 0.025

Q: And the surviving fraction (BI-2536 [4]; 100 nM)?
A: 0.254 ± 0.017

Q: What about the surviving fraction (BI-2536 [4]; 500 nM) of the same test system?
A: 0.191 ± 0.019

Q: And the surviving fraction (BI-2536 [4]; 1000 nM)?
A: 0.115 ± 0.024

Q: And the surviving fraction (AFATINIB [5]; 0.5 nM)?
A: 1.37 ± 0.28

Q: And the surviving fraction (AFATINIB [5]; 1 nM)?
A: 1.23 ± 0.18

Q: What about the surviving fraction (AFATINIB [5]; 5 nM) of the same test system?
A: 1.27 ± 0.074

Q: And the surviving fraction (AFATINIB [5]; 10 nM)?
A: 1.26 ± 0.044

Q: And the surviving fraction (AFATINIB [5]; 50 nM)?
A: 1.2 ± 0.2

Q: What about the surviving fraction (AFATINIB [5]; 100 nM) of the same test system?
A: 1.17 ± 0.17

Q: And the surviving fraction (AFATINIB [5]; 500 nM)?
A: 1 ± 0.18

Q: And the surviving fraction (AFATINIB [5]; 1000 nM)?
A: 0.749 ± 0.098

Q: What about the surviving fraction (MDV3100 [6]; 0.5 nM) of the same test system?
A: 1.02 ± 0.14

Q: What about the surviving fraction (MDV3100 [6]; 1 nM) of the same test system?
A: 1.27 ± 0.2

Q: What about the surviving fraction (MDV3100 [6]; 5 nM) of the same test system?
A: 1.28 ± 0.038

Q: What about the surviving fraction (MDV3100 [6]; 10 nM) of the same test system?
A: 1.1 ± 0.066

Q: What about the surviving fraction (MDV3100 [6]; 50 nM) of the same test system?
A: 1.25 ± 0.027

Q: What about the surviving fraction (MDV3100 [6]; 100 nM) of the same test system?
A: 1.35 ± 0.11

Q: What about the surviving fraction (MDV3100 [6]; 500 nM) of the same test system?
A: 1.28 ± 0.038

Q: And the surviving fraction (MDV3100 [6]; 1000 nM)?
A: 1.13 ± 0.19

Q: What about the surviving fraction ([7]; 0.5 nM) of the same test system?
A: 1 ± 0.33

Q: And the surviving fraction ([7]; 1 nM)?
A: 1.06 ± 0.23

Q: What about the surviving fraction ([7]; 5 nM) of the same test system?
A: 0.978 ± 0.3

Q: What about the surviving fraction ([7]; 10 nM) of the same test system?
A: 0.92 ± 0.11

Q: And the surviving fraction ([7]; 50 nM)?
A: 0.114 ± 0.036

Q: And the surviving fraction ([7]; 100 nM)?
A: 0.031 ± 0.0079

Q: And the surviving fraction ([7]; 500 nM)?
A: 0.027 ± 0.0027

Q: What about the surviving fraction ([7]; 1000 nM) of the same test system?
A: 0.021 ± 0.0017

Q: What about the surviving fraction (TIOGUANINE [8]; 0.5 nM) of the same test system?
A: 1.15 ± 0.31

Q: And the surviving fraction (TIOGUANINE [8]; 1 nM)?
A: 1.3 ± 0.38

Q: And the surviving fraction (TIOGUANINE [8]; 5 nM)?
A: 1.15 ± 0.29

Q: And the surviving fraction (TIOGUANINE [8]; 10 nM)?
A: 1.28 ± 0.099

Q: And the surviving fraction (TIOGUANINE [8]; 50 nM)?
A: 1.1 ± 0.24

Q: What about the surviving fraction (TIOGUANINE [8]; 100 nM) of the same test system?
A: 1.08 ± 0.062

Q: What about the surviving fraction (TIOGUANINE [8]; 500 nM) of the same test system?
A: 1.08 ± 0.32

Q: And the surviving fraction (TIOGUANINE [8]; 1000 nM)?
A: 0.95 ± 0.15

Q: And the “area under dose-response curve” value (CANERTINIB [9])?
A: 3.55

Q: And the “area under dose-response curve” value (SNX-5422 [10])?
A: 1.97

Q: What about the “area under dose-response curve” value (SAPACITABINE [11]) of the same test system?
A: 2.32

Q: And the “area under dose-response curve” value (BI-2536 [12])?
A: 1.35

Q: And the “area under dose-response curve” value (AFATINIB [13])?
A: 3.94

Q: What about the “area under dose-response curve” value (MDV3100 [14]) of the same test system?
A: 4.04

Q: And the “area under dose-response curve” value [15]?
A: 1.69

Q: And the “area under dose-response curve” value (TIOGUANINE [16])?
A: 3.75
